In patent US20240116877A1, “KIT KINASE INHIBITORS AND METHODS OF USE THEREOF” (Deciphera Pharmaceuticals, LLC, priority 2021, published 2024):
Like-named read-outs stand apart in the source and are kept apart here.

Tests used:
[1] = target: c-KIT kinase (uKIT) (Homo sapiens (Human), UniProt P10721); assay: Biochemical Assay for uKIT (coupled pyruvate kinase/lactate dehydrogenase assay); settings: Inhibition of biochemical activity of uKIT kinase; 1 mM ATP
Description: Biochemical Assay for uKIT
Activity of c-KIT kinase (SEQ. ID NO. 1 or SEQ. ID NO. 2) was determined spectroscopically using a coupled pyruvate kinase/lactate dehydrogenase assay that continuously monitors the ATP hydrolysis-dependent oxidation of NADH (e.g., Schindler et al. Science (2000) 289: 1938-1942). Assays were conducted in 384-well plates (100 μL final volume) using 16 nM (Decode, SEQ ID No. 1) or 4.36 nM (Signal Chem, SEQ. ID No. 2), 0.7 mg/mL PE4Y substrate, 1.5 units pyruvate kinase, 2.1 units lactate dehydrogenase, 1 mM phosphoenol pyruvate, 0.28 mM NADH and 1 mM ATP in assay buffer (100 mM Tris, pH 7.5, 15 mM MgCl2, 0.5 mM DTT, 0.1% octyl-glucoside, 0.002% (w/v) BSA, and 0.002% Triton X-100). Inhibition of KIT was measured by adding serial diluted test compound (final assay concentration of 1% DMSO). A decrease in absorption at 340 nm was monitored continuously for 6 h at 30° C. on a multi-mode microplate reader (BioTek). The reaction rate was calculated using the 2-3 h time frame. The reaction rate at each concentration of compound was converted to percent inhibition using controls (i.e., reaction with no test compound and reaction with a known inhibitor) and IC50 values were calculated using software routines in Prism (GraphPad software).

[2] = system: GIST 430 cells; assay: GIST 430 Cell Proliferation Assay (resazurin); assay type: cell-based; settings: Homo sapiens; GIST430 cell proliferation
Description: GIST 430 Cell Proliferation Assay
(§1) A serial dilution of test compound was dispensed into a 96-well black clear bottom plate (Corning, Corning, NY). Five thousand cells were added per well in 200 μL complete growth medium. Plates were incubated for 115 h at 37 degrees Celsius, 5% CO2, 95% humidity. At the end of the incubation period 40 μL of a 440 μM solution of resazurin (Sigma, St. Louis, MO) in PBS was added to each well and incubated for an additional 5 h at 37 degrees Celsius, 5% CO2, 95% humidity. Plates were read on a Synergy2 reader (Biotek, Winooski, VT) using an excitation of 540 nm and an emission of 600 nm. Data was analyzed using Prism software (Graphpad, San Diego, CA) to calculate IC50 values.

[3] = system: Ba/F3 KIT mutant cells; assay: Ba/F3 mutant KIT Cell Proliferation Assays (resazurin); assay type: cell-based; settings: Mus musculus, BaF3
Description: Ba/F3 KIT Mutant Cell Line Transduction and Expansion
Several different KIT cDNA encoding various primary and secondary mutations were cloned into a pLV(Exp]-CMV>(cDNA):IRES:puro vector. These vectors were constructed and packaged by VectorBuilder.
Exponentially grown Ba/F3 cells (1×10^6 cells in 1 ml medium) were infected with 60 μl of viral suspension in a 6-well plate in the presence of mIL-3 (10 ng/ml) and polybrene (7.5 μg/ml) (Vector Builder) and incubated for 16 h. After 16 h, the cells were centrifuged, and viral supernatant was discarded. The cells were then re-suspended in fresh medium and allowed to recover for another day. After 72 h post infection, the cells were seeded with complete medium with mIL-3 and with 1 μg/ml puromycin added to medium for selection. After 48 h, cells without viral infection die, whereas successfully transduced cells were collected and changed to fresh medium with 5 ng/ml of IL-3. After a week or two with gradual withdrawal of mIL3 the cells that can continue to proliferate in the absence of mIL3 were exponentially expanded and were frozen down for banking.
Ba/F3 mutant KIT Cell Proliferation Assays
as §1, with “a 384-well” for “a 96-well”, “NY). Six hundred and twenty-five” for “NY). Five thousand”, “in 50” for “in 200”, “for 68” for “for 115”, “at 37° C.,” for “at 37 degrees Celsius,”, “period 10” for “period 40”

[4] = Ba/F3 KIT AYdup mutant cell proliferation, read-out: AYdup IC50
[5] = Ba/F3 KIT AYdup-D816G mutant cell proliferation, read-out: AYdup-D816G IC50
[6] = Ba/F3 KIT AYdup-V654A mutant cell proliferation, read-out: AYdup-V654A IC50
[7] = Ba/F3 KIT exon11del-V654A mutant cell proliferation, read-out: exon11del-V654A IC50
[8] = Ba/F3 KIT exon11del-Y823D mutant cell proliferation, read-out: exon11del-Y823D IC50

c-KIT kinase (uKIT), sequence (P10721 other isoform, or with tags, fused parts or gaps): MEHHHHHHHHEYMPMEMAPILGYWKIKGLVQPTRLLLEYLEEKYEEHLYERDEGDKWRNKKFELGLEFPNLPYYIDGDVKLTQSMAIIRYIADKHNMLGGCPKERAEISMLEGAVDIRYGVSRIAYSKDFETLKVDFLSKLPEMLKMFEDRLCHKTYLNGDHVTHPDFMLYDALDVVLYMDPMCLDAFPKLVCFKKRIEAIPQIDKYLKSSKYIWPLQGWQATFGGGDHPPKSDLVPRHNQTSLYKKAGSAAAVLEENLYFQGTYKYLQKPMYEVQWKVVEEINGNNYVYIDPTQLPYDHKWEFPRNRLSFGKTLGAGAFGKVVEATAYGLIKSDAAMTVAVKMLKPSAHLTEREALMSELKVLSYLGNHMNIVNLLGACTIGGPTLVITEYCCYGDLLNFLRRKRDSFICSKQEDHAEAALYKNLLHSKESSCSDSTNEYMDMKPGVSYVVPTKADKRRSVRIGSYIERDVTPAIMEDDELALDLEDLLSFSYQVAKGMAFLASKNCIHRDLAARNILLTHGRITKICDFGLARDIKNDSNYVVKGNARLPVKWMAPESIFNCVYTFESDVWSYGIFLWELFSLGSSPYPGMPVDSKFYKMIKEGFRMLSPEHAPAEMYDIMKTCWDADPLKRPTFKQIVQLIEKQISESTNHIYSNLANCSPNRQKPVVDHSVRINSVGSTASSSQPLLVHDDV

Compound	IC50 [1]	IC50 [3, 4]	IC50 [3, 5]	IC50 [3, 6]	IC50 [3, 7]	IC50 [3, 8]	IC50 [2]
COCCOc1cc(F)c2c(Nc3ccc(NC(=O)NCCC(C)(C)C(F)(F)F)cc3)ncnc2c1 [Example 1, 1-(4-((5-fluoro-7-(2-methoxyethoxy)quinazolin-4-yl)amino)phenyl)-3-(4,4,4-trifluoro-3,3-dimethylbutyl)urea]	≤ 10 nM						≤ 10 nM
COCCOc1cc(F)c2c(Nc3ccc(NC(=O)NCCC(C)(C)F)cc3)ncnc2c1 [Example 2, 1-(3-fluoro-3-methylbutyl)-3-(4-((5-fluoro-7-(2-methoxyethoxy)quinazolin-4-yl)amino)phenyl)urea]	≤ 10 nM	≤ 10 nM	10 to 100 nM	10 to 100 nM	10 to 100 nM	100 to 1000 nM	10 to 100 nM
COCCOc1cc(F)c2c(Nc3ccc(NC(=O)CCC(C)(C)C)cc3)ncnc2c1 [Example 3, N-(4-((5-fluoro-7-(2-methoxyethoxy)quinazolin-4-yl)amino)phenyl)-4,4-dimethylpentanamide]	10 to 100 nM						100 to 1000 nM
COCCOc1cc(F)c2c(Nc3ccc(NC(=O)CC(=O)NCC(C)(C)C)cc3)ncnc2c1 [Example 4, N1-(4-((5-fluoro-7-(2-methoxyethoxy)quinazolin-4-yl)amino)phenyl)-N3-neopentylmalonamide]	10 to 100 nM	10 to 100 nM	10 to 100 nM	10 to 100 nM	10 to 100 nM	10 to 100 nM	≤ 10 nM
COCCOc1cc(F)c2c(Nc3ccc(NC(=O)CC(=O)NCC(C)(C)OC)cc3)ncnc2c1 [Example 5, N^1-(4-((5-fluoro-7-(2-methoxyethoxy)quinazolin-4-yl)amino)phenyl)-N^3-(2-methoxy-2-methylpropyl)malonamide]	10 to 100 nM			10 to 100 nM	10 to 100 nM	> 1000 nM	10 to 100 nM
CC(C)Oc1cc(F)c2c(Nc3ccc(NC(=O)NCCC(C)(C)F)cc3)ncnc2c1 [Example 6, 1-(3-fluoro-3-methylbutyl)-3-(4-((5-fluoro-7-isopropoxyquinazolin-4-yl)amino)phenyl)urea]	≤ 10 nM			100 to 1000 nM	≤ 10 nM	100 to 1000 nM	10 to 100 nM
CO[C@@H](C)COc1cc(F)c2c(Nc3ccc(NC(=O)NCCC(C)(C)F)cc3)ncnc2c1 [Example 7, (S)-1-(3-fluoro-3-methylbutyl)-3-(4-((5-fluoro-7-(2-methoxypropoxy)quinazolin-4-yl)amino)phenyl)urea]	≤ 10 nM			10 to 100 nM	10 to 100 nM	10 to 100 nM	10 to 100 nM
COCCOc1cc(F)c2c(Nc3ccc(NC(=O)NC4CC(C)(C)C4)cc3)ncnc2c1 [Example 8]	≤ 10 nM	≤ 10 nM	10 to 100 nM	10 to 100 nM	10 to 100 nM	100 to 1000 nM	10 to 100 nM
COCCOc1cc(F)c2c(Nc3ccc(NC(=O)NCCC(C)(C)C)cc3)ncnc2c1 [Example 9]	≤ 10 nM	≤ 10 nM	≤ 10 nM	≤ 10 nM	≤ 10 nM	10 to 100 nM	≤ 10 nM
COCCOc1cc(F)c2c(Nc3ccc(NC(=O)NCCC(C)(C)OC)cc3)ncnc2c1 [Example 10]	≤ 10 nM	≤ 10 nM	≤ 10 nM	10 to 100 nM	≤ 10 nM	10 to 100 nM	≤ 10 nM
COCCOc1cc(F)c2c(Nc3ccc(NC(=O)NCC4COC4)cc3)ncnc2c1 [Example 11]	10 to 100 nM						100 to 1000 nM
COCCOc1cc(F)c2c(Nc3ccc(NC(=O)NC4CCOCC4)cc3)ncnc2c1 [Example 12]	10 to 100 nM						100 to 1000 nM
COCCOc1cc(F)c2c(Nc3ccc(NC(=O)NCC4CCOCC4)cc3)ncnc2c1 [Example 13]	10 to 100 nM						10 to 100 nM
COCCOc1cc(F)c2c(Nc3ccc(NC(=O)N[C@@H]4CCOC4)cc3)ncnc2c1 [Example 14]	10 to 100 nM						100 to 1000 nM

More lines, main results first:

IC50 [1]	IC50 [3, 4]	IC50 [3, 5]	IC50 [3, 6]	IC50 [3, 7]	IC50 [3, 8]	Compound	IC50 [2]
≤ 10 nM		10 to 100 nM	10 to 100 nM	10 to 100 nM	100 to 1000 nM	COCCOc1cc(F)c2c(Nc3ccc(NC(=O)NC4CCC(C(F)(F)F)CC4)cc3)ncnc2c1 (centres unmarked) [Example 15]	10 to 100 nM
≤ 10 nM		≤ 10 nM	10 to 100 nM	≤ 10 nM	10 to 100 nM	COCCOc1cc(F)c2c(Nc3ccc(NC(=O)CCCC(C)(C)C)cc3)ncnc2c1 [Example 16]	≤ 10 nM
≤ 10 nM						COCCOc1cc(F)c2c(Nc3ccc(NC(=O)NCCC4(C(F)(F)F)CC4)cc3)ncnc2c1 [Example 17]	≤ 10 nM
≤ 10 nM	≤ 10 nM	≤ 10 nM	≤ 10 nM	≤ 10 nM	10 to 100 nM	COCCOc1cc(F)c2c(Nc3ccc(NC(=O)NCCC(C)C)cc3)ncnc2c1 [Example 18]	10 to 100 nM
≤ 10 nM	≤ 10 nM	≤ 10 nM	≤ 10 nM	10 to 100 nM	100 to 1000 nM	COCCOc1cc(F)c2c(Nc3ccc(NC(=O)NCCC4CC4)cc3)ncnc2c1 [Example 19]	10 to 100 nM
≤ 10 nM						COCCOc1cc(F)c2c(Nc3ccc(NC(=O)NCCC4CCCC4)cc3)ncnc2c1 [Example 21]	≤ 10 nM
≤ 10 nM						COCCOc1cc(F)c2c(Nc3ccc(NC(=O)NCCC4CC(F)(F)C4)cc3)ncnc2c1 [Example 22]	≤ 10 nM
100 to 1000 nM						COCCOc1cc(F)c2c(Nc3ccc(NC(=O)CCC(C)(C)F)cc3)ncnc2c1 [Example 23]	100 to 1000 nM
100 to 1000 nM						COCCOc1cc(F)c2c(Nc3ccc(NC(=O)NCCC(C)(C)OC)nc3)ncnc2c1 [Example 24]	100 to 1000 nM
100 to 1000 nM			> 1000 nM	> 1000 nM		COCCOc1cc(F)c2c(Nc3ccc(NC(=O)NC4CC(C)(C)C4)nc3)ncnc2c1 [Example 25]	> 1000 nM
≤ 10 nM	≤ 10 nM	≤ 10 nM	10 to 100 nM	10 to 100 nM	10 to 100 nM	COCCOc1cc(F)c2c(Nc3ccc(NC(=O)NCCC(C)(C)C#N)cc3)ncnc2c1 [Example 26]	10 to 100 nM
100 to 1000 nM			> 1000 nM	> 1000 nM		COCCOc1cc(F)c2c(Nc3ccc(NC(=O)NCCC4COC4)cc3)ncnc2c1 [Example 27]	> 1000 nM
10 to 100 nM		10 to 100 nM	10 to 100 nM	10 to 100 nM	100 to 1000 nM	COCCOc1cc(F)c2c(Nc3ccc(NC(=O)CCC(C)(C)OC)cc3)ncnc2c1 [Example 28]	10 to 100 nM
100 to 1000 nM		> 1000 nM	> 1000 nM	> 1000 nM	> 1000 nM	COCCOc1cc(F)c2c(Nc3ccc(NC(=O)NCCC(C)(C)F)nc3)ncnc2c1 [Example 29]	100 to 1000 nM
